Target: T1, Scytalone dehydratase (Magnaporthe oryzae (strain 70-15 / FGSC 8958) (Rice blast fungus)(Pyricularia oryzae), UniProt P56221)
T1 sequence (P56221 whole entry): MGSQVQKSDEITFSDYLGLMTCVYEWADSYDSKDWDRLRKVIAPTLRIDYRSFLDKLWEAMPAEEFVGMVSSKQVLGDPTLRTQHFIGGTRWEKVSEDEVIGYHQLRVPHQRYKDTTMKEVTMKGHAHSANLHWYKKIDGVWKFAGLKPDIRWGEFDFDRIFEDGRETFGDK
Assay: Compound was evaluated for its inhibition constant against scytalone dehydratase (SD)
Design: species or system Pyricularia grisea

O=C(/C=C/c1ccccc1)NC(=S)Nc1ccc(S(=O)(=O)Nc2cc(F)ccc2F)cc1
Ki: 6.4 nM

Reference: ChEMBL document CHEMBL1133413, “Selection of a potent inhibitor of trihydroxynaphthalene reductase by sorting disease control data” (Bioorg Med Chem Lett, 2000)
